According to patent US4743541A, “Luminescent substrate preparation and its use in specific binding assays” (priority 1985, dated 1988):
Where two headings read alike, the source gives them in different places.

Target: T1, horseradish peroxidase (HRP) (Armoracia rusticana, UniProt P00433)
T1 sequence (P00433 31-353): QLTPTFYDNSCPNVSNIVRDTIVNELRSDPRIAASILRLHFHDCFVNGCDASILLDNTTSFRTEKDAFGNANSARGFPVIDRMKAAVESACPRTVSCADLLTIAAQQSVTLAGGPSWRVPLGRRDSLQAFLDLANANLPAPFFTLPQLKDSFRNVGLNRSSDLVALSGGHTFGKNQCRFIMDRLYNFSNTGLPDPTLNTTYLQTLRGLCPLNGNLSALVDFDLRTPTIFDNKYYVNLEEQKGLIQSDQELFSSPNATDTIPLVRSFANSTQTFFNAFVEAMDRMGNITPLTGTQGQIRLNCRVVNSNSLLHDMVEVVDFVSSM
Method: A standardized test procedure for measuring luminol light output has been established. To 0.5 ml of 50 mM borate buffer, pH 9.4, are added 0.5 ml of 40 mM luminol in 45 mM NaOH, pH 11.0; 0.5 ml of 4 mM hydrogen peroxide in 0.01M phosphate buffered saline (PBS), pH 7.0; 0.4 ml of deionized water; and 0.1 ml of 200 mU/ml horseradish peroxidase (HRP) to yield a final 2.0 ml volume containing; 10 mM luminol; 1 mM H2 O2; 12.5 mM borate buffer, pH 9.4; and 20 mU HRP in an aqueous solution having a final pH of 9.4. The enzyme HRP is added last, the solution mixed and relative intensity readings taken on an Ames Fluorocolorimeter (Miles Labs, Inc., Elkhart, IN) at various time points from 1 minute to 2 hours.
The chemical synthesis of luminol and other luminescent substrates use chemicals which can inhibit the catalysts used in luminescent reactions. Two of these inhibitory chemicals known to be used in luminol synthesis were added back to a luminescent reaction using the luminol prepared in Example 1 above.

Compound	Effect on luminescence yield in the reaction	% Reaction (hrp luminol luminescence, pH 9.4, 30 min)	Amount in the luminol that can inhibit the production of light	Effect on luminescence yield in the reaction (in words)
N.N.O=S(=O)(O)O [Ammonium Sulfate, ammonium sulfate]	had no effect	100%		
NN.O=S(=O)(O)O [Hydrazine Sulfate, hydrazine sulfate]			greater than 100 ppm	drastically inhibits
ammonium sulfide			greater than 100 ppm	drastically inhibits
